How the values were obtained:
[1] = humans, cited from earlier work
[2] = biological target: T1, BRAF (Homo sapiens, UniProt P15056); assay: ATP acyl phosphate chemical proteomics in lung cancer cell proteomes; type: binding
T1 construct: measure selectivity of compounds against native kinases detected in lung cancer proteomes; endogenous in cells; host or cells: A549 and H82 lung cancer cell proteomes
Description: LC-MS analysis of SILAC samples using ATP acyl phosphates. Quantitative chemoproteomics was performed as previously described (Franks et al., 2017; McCloud et al., 2018).
Computational Methods. Data for A549 and H82 cell lines were searched with IP2 and manually validated using the methods previously described (Franks et al., 2017). Data for Desthiobiotin-tagged ATP acyl-phosphate probes and ATP competitive peptides were compared and clustered. Ritanserin and ketanserin inhibition profiles were compared using SILAC ratios and normalized to DMSO.
Based on previous chemical proteomics (Franks, 2017), it was hypothesized that ritanserin is functioning as a kinase inhibitor to mediate cytotoxicity in the lung cancer cell models. […] For these studies, NSCLC and SCLC cells were cultured in isotopically light and heavy amino acids to enable quantitative chemical proteomics (Chang. 2015) by stable isotope labeling with amino acids in cell culture (SILAC, FIG. 17A). […] After probe labeling, light and heavy proteomes were combined, digested with trypsin protease, and desthiobiotin-modified peptides enriched by avidin affinity chromatography and analyzed by LC-MS/MS to identify and quantify isotopically tagged active-site peptides from native kinases as previously described(Franks, 2017) (FIG. 17A).
To further confirm that ritanserin is a CRAF inhibitor, a targeted parallel reaction monitoring method (PRM) was developed to evaluate compound activity against CRAF and other members of the RAF family (ARAF and BRAF). Targeted PRM was needed because of the low abundance of CRAF compared with ARAF and BRAF). […] Ritanserin activity was also measured against RAF kinases in A549 proteomes using the targeted LC-MS method. […] The data further support previous findings that this RAF member is enriched in SCLC cells (REF).

[3] = biological target: T2, hDGKa C1 domain cysteines (Homo sapiens, UniProt P23743); assay: JWB003 labeling competition in vitro; type: binding
T2 construct: expressed in transfected cells; host or cells: HEK293T
Description: • 1. HEK293T cells were harvested in cold PBS. • a. Cells were transferred to Eppendorf tube. • 2. Cells were lysed via tip sonicator. • 3. Cells were fractionated into membrane and soluble fraction. • a. 100,000×G for 45 minutes at 4 degree. • b. Supernatant was separated from cell pellet. • 4. Dilute proteomes to 1 mg/mL in PBS and aliquot appropriate reaction volume (49 μL for probe only; 48 μL for competition+probe) • 5. Cells were treated with 50× inhibitor. • a. Incubated for 1Hr at 37 degree. • 6. Cells were treated with 50× Probe (JWB003). • a. Incubated for 1Hr at 37 degree. • 7. Add 6 μL of master mix to each alkyne probe-labeled sample. • a. 1 μL of 1.25 mM Rh-N3 • b. 1 μL of fresh 50 mM TCEP • c. 3 μL of 1.7 mM TBTA stock • d. 1 μL of 50 mM CuSO4 • 8. Vortex samples. • 9. Incubate at room temperature for 1 hr • 10. Quench with 17 μL of 4×SDS-PAGE loading buffer+βME and vortex tubes. • 11. Analyze 30 μL samples by SDS-PAGE immediately. [B] Labeling HEK293T Cells to Determine Target Proteins of JWB003 in Live Cells (In Situ) • 1. Complete media was removed from HEK293T cells and replaced with serum free media containing JWB003 at the appropriate final concentration • a. Cells were placed in incubator for appropriate time at 37 degree 5% CO2 • 2. Cells were washed • a. 2× warm PBS • b. 2× cold PBS • c. Harvest cells in cold PBS • 3. Cells were transferred to Eppendorf tube • 4. Cells were lysed via tip sonicator • 5. Cells were fractionated into membrane and soluble fraction • a. 100,000×G for 45 minutes at 4 degrees • b. Supernatant was separated from cell pellet. • 6. Dilute proteomes to 1 mg/mL and aliquot appropriate reaction volume (50 μL) • 7. Add 6 μL of master mix to each alkyne probe-labeled sample. • a. 1 μL of 1.25 mM Rh-N3 • b. 1 μL of fresh 50 mM TCEP • c. 3 μL of 1.7 mM TBTA stock • d. 1 μL of 50 mM CuSO4 • 8. Vortex samples. • 9. Incubate at room temperature for 1 hr. • 10. Quench with 17 μL of 4×SDS-PAGE loading buffer+βME and vortex tubes. • 11. Analyze 30 μL samples by SDS-PAGE immediately. [C] […]

T1 sequence (P15056 whole entry): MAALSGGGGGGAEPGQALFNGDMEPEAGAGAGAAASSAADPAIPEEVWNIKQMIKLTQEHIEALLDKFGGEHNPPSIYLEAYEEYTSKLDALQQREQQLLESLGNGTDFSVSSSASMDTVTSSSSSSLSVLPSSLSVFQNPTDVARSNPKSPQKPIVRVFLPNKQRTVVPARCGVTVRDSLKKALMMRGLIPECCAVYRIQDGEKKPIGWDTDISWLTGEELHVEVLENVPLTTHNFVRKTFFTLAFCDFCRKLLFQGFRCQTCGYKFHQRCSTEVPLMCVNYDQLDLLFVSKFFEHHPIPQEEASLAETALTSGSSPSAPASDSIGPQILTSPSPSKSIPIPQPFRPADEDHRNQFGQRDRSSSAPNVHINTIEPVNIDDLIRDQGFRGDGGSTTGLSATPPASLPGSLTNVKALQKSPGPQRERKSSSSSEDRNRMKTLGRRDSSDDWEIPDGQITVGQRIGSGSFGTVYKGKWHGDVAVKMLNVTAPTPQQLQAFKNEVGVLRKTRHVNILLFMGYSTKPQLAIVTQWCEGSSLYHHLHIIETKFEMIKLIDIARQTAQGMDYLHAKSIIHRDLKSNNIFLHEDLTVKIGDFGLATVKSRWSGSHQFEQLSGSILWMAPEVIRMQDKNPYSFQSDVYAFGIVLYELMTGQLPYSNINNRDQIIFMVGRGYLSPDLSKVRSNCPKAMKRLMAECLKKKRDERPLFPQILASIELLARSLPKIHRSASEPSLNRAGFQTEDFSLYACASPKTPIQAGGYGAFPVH
T2 sequence (P23743 whole entry, the tested form may be a part): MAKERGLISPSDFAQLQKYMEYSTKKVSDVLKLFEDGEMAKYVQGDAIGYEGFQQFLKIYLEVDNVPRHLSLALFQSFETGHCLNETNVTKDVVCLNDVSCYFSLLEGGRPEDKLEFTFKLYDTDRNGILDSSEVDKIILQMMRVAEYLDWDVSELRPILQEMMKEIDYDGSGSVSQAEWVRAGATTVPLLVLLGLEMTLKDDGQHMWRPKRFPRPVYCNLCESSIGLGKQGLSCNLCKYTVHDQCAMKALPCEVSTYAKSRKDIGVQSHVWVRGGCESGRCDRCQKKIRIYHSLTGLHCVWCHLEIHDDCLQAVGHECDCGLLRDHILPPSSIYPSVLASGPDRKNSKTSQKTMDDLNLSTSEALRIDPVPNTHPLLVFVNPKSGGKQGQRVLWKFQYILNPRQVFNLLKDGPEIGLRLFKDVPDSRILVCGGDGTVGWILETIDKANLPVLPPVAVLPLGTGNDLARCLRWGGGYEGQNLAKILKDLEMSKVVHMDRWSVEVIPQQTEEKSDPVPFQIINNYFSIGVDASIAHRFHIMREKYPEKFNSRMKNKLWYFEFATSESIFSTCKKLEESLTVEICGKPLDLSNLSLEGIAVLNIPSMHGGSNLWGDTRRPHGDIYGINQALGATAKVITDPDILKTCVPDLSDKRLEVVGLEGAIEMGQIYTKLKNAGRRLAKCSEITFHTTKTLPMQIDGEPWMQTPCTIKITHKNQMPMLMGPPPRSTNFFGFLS

Cc1nc2sccn2c(=O)c1CCN1CCC(=C(c2ccc(F)cc2)c2ccc(F)cc2)CC1 [Ritanserin]
adverse side effects [1]: lack of adverse side effects | half-life ([1]; oral): ~40 h | inhibition by three-fold change cutoff ([2]; 100 μM, A549 and H82 proteomes): BRAF inhibition | activity by targeted PRM ([2]; H82 proteomes): negligible activity | inhibition of JWB003 probe labeling of hDGKa [3]: Probe labeling is inhibited
